# Assay results reported in BindingDB's records for doi:10.1016/s0960-894x(01)00239-6 (Dupont Pharmaceuticals, 2001).
# Biological target: T1, Gag-Pol polyprotein [588-1027]/[588-1147] (Human immunodeficiency virus 1, UniProt P04585)
# T1 construct: 588-1027; 588-1147
# Assay: HIV-1 RT Assay
# Conditions: pH 8.2; 37 °C
# Excerpt: The IC50 of reverse transcriptase is the concentration that inhibits 50% of recombinant HIV-1 RT RNA-directed DNA polymerase activity in vitro.
row,Compound,IC50
1,"C[C@@H]1O[C@](/C=C/C2CC2)(C(F)(F)F)c2cc(Cl)ccc2NC1=O [(3S,5S)-7-chloro-5-[(E)-2-cyclopropylethenyl]-3-methyl-5-(trifluoromethyl)-1,2,3,5-tetrahydro-4,1-benzoxazepin-2-one]",46 nM
2,"C[C@@H]1O[C@](/C=C/C2CC2)(C(F)(F)F)c2c(ccc(F)c2F)NC1=O [(3S,5S)-5-[(E)-2-cyclopropylethenyl]-6,7-difluoro-3-methyl-5-(trifluoromethyl)-1,2,3,5-tetrahydro-4,1-benzoxazepin-2-one]",173 nM
3,"C[C@@H]1O[C@](/C=C/C2CC2)(C(F)(F)F)c2cc(F)ccc2NC1=O [(3S,5S)-5-[(E)-2-cyclopropylethenyl]-7-fluoro-3-methyl-5-(trifluoromethyl)-1,2,3,5-tetrahydro-4,1-benzoxazepin-2-one]",129 nM
4,"CC[C@@H]1O[C@](/C=C/C2CC2)(C(F)(F)F)c2cc(F)ccc2NC1=O [(3S,5S)-5-[(E)-2-cyclopropylethenyl]-3-ethyl-7-fluoro-5-(trifluoromethyl)-1,2,3,5-tetrahydro-4,1-benzoxazepin-2-one]",151 nM
5,"CC[C@@H]1O[C@](/C=C/C2CC2)(C(F)(F)F)c2cc(Cl)ccc2NC1=O [(3S,5S)-7-chloro-5-[(E)-2-cyclopropylethenyl]-3-ethyl-5-(trifluoromethyl)-1,2,3,5-tetrahydro-4,1-benzoxazepin-2-one]",185 nM
